Where two headings read alike, the source gives them in different places.
Columns and labels:
tryptophan synthase = tryptophan synthase (Escherichia coli, UniProt P0A879); test: Activity of immobilized tryptophan synthase source after standing in aqueous solutions of organic impurities; type: biochemical, Escherichia coli MT-10232 (FERM BP-19); conditions: for activity at 20 µg/mL: impurity 20 ppm; for activity at 20 µg/mL / activity at 50 µg/mL / activity at 200 µg/mL / activity at 500 µg/mL / activity at 1000 µg/mL: 30° C., pH 8.5; for activity at 20 µg/mL / activity at 50 µg/mL / activity at 500 µg/mL / activity at 1000 µg/mL: ratio to enzyme left in reference solution; for activity at 50 µg/mL: impurity 50 ppm; for activity at 200 µg/mL: impurity 200 ppm, ratio to enzyme left in reference solution without organic substance; for level at which the impurity inhibits tryptophan synthase: enzyme synthesizing tryptophan from indole and L-serine; for activity at 500 µg/mL: impurity 500 ppm; for activity at 1000 µg/mL: impurity 1000 ppm
Sequence of tryptophan synthase (P0A879 2-397): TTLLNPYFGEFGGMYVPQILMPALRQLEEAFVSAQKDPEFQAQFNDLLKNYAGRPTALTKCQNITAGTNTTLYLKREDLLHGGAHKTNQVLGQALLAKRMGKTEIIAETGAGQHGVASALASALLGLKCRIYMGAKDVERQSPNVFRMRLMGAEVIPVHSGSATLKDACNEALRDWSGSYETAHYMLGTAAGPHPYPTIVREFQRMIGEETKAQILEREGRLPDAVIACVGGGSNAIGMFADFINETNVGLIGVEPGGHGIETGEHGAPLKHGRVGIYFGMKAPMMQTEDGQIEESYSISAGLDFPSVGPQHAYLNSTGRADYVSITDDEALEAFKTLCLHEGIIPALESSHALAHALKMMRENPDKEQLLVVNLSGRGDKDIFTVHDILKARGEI
Sequence of tryptophan synthase (P0A877 whole entry, further chain): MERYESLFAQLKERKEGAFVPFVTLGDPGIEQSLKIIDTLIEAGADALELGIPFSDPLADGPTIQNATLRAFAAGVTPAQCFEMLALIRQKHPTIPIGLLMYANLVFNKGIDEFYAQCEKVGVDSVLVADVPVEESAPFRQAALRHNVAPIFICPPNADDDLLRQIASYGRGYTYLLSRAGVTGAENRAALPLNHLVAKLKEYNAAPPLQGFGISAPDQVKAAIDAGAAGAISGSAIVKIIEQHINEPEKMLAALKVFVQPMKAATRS
Protocol: Escherichia coli MT-10232 (FERM BP-19), which is a tryptophan synthase-producing bacterium, was inoculated to 100 ml of the culture medium having the composition shown in Table 2 in a 500 ml flask, and was incubated at 35° C. for 24 hours. Two hundred milliliters (in two flasks) of the culture medium was inoculated to 15 1 of the culture medium having the composition shown in Table 3 in 30 1 of jar fermenter and was incubated at 35° C., pH 6.8 (adjusted with 28% aqueous ammonia) for 30 hours.
After the culture, the culture medium was centrifuged to collect 600 g wet weight of the bacterial cells. The cells were placed in a sealed container and restored in a refrigerator at 4° C., and were used for preparing the immobilized enzyme source.
One part of the above-described wet bacterial cells and one part of isotonic sodium chloride solution were mixed with stirring. On the other hand, 7.76 parts of distilled water and 0.24 parts of sodium alginate (NSPLL manufactured by Kibun Food Chemifa, Co., Ltd.) were mixed with stirring and pH thereof was adjusted to 8.5 with sodium hydroxide.
Two parts of the suspension of the cells and 8 parts of the sodium alginate solution were mixed with stirring and the resulting mixture was fed into a syringe and was dropped into a gelling solution from the tip of a needle with an inner diameter of 0.5 mm to 0.8 mm.
The particles formed by dropping the mixture into the gelling solution was matured under stirring in the gelling solution to obtain immobilized enzyme source.
To each of the aqueous solutions with a volume of 100 ml containing aniline, N-ethylaniline, o-ethylaniline, o-toluidine, 3-methylindole or 2-ethylindole in the amount shown in Table 4, […] of calcium chloride dihydrate and 1 mg of pyridoxal-5'-phosphate were added, and the pH thereof was adjusted to 8.5 with aqueous ammonia.
Further, as a reference solution, 100 ml of distilled water containing no organic substance was subjected to the same procedure as described above and the immobilized enzyme source was added thereto as mentioned above, followed by being left to stand at 30° C.
Twenty four hours later and 96 hours later, 1 g of immobilized enzyme source was removed from each of the solutions and the enzyme activity was determined. The ratio of the activity of the enzyme left in the solution of the organic substance to the activity of the enzyme left in the reference solution was determined and is shown in Table 4.
The enzyme activity was determined as follows:
Ten milliliters of reaction medium containing indole, L-serine, pyridoxal-5'-phosphate (PLP) and 0.3 g of the immobilized enzyme source was prepared and the reaction was conducted at 35° C. in a shaking incubator for 1 hour with shaking. The produced L-tryptophan was analyzed with high performance liquid chromatography.

[1] = room temperature; cited from earlier work
[2] = 24 h, read-out: Activity Ratio 24 Hours Later
[3] = 96 h, read-out: Activity Ratio 96 Hours Later

Compound	activity at 20 µg/mL (tryptophan synthase; [2]) [%]	activity at 50 µg/mL (tryptophan synthase; [2]) [%]	activity at 200 µg/mL (tryptophan synthase; [2]) [%]	activity at 20 µg/mL (tryptophan synthase; [3]) [%]	activity at 50 µg/mL (tryptophan synthase; [3]) [%]	activity at 200 µg/mL (tryptophan synthase; [3]) [%]	level at which the impurity inhibits tryptophan synthase (tryptophan synthase)	activity at 500 µg/mL (tryptophan synthase; [2]) [%]	activity at 500 µg/mL (tryptophan synthase; [3]) [%]	activity at 1000 µg/mL (tryptophan synthase; [2]) [%]	activity at 1000 µg/mL (tryptophan synthase; [3]) [%]	solubility in water [1] [µg/mL]
CCc1cc2ccccc2[nH]1 [2-ethylindole]	93	73	68	71	54	48	about 20 ppm	–	–	–	–	–
Cc1c[nH]c2ccccc12 [3-methylindole]	–	–	94	–	–	89	about 200 ppm	94	84	–	–	–
Nc1ccccc1 [Aniline]	–	–	98	–	–	101	–	–	–	100	82	–
CCNc1ccccc1 [N-ethylaniline]	–	–	104	–	–	97	–	–	–	100	89	–
c1ccc2[nH]ccc2c1 [indole]	–	–	–	–	–	–	–	–	–	–	–	3000 to 4000
CCc1ccccc1N [o-ethylaniline]	–	–	90	–	–	77	about 200 ppm	–	–	71	50	–
Cc1ccccc1N [o-toluidine]	–	–	97	–	–	106	–	–	–	88	80	–

Reference: US5085991A, “Process of preparing purified aqueous indole solution” (Mitsui Toatsu Chemicals, Inc., priority 1987, dated 1992)
